For orientation: IC50 means the concentration needed to halve the response being measured. A low value points to greater potency in that assay. A word on the EC50: it is the concentration giving half of the maximal effect.

Results on 29 compounds are retold here after ChEMBL document CHEMBL1128692, “Peptidomimetic inhibitors of herpes simplex virus ribonucleotide reductase: a new class of antiviral agents” (J Med Chem, 1995).

Non-standard residues stand in square brackets, D forms with d. Residues, ends and D or L forms follow the SMILES beside them. *: point of attachment. Asp(3,3-(CH2)4) = N[C@H](C(=O)O)C1(C(=O)O)CCCC1; Dibenzylacetyl = O=C(C(Cc1ccccc1)Cc1ccccc1)*; Leu(γ-Me)ol = CC(C)(C)C[C@@H](CO)N*; Hydrocinnamoyl = O=C(CCc1ccccc1)*; tBuAla = CC(C)(C)C[C@H](N)C(=O)O; Butanoyl(2-Et) = CCC(CC)C(=O)*; Chg = N[C@H](C(=O)O)C1CCCCC1; Tle = CC(C)(C)[C@H](N)C(=O)O; NMeV = CN[C@H](C(=O)O)C(C)C; Leu(ol) = CC(C)C[C@H](N)CO; Pyrrolidide = C1CCN(*)C1; Abu = CC[C@H](N)C(=O)O

The target of test [1] is Ribonucleotide reductase large subunit (Herpes simplex virus 1). As to the kind of experiment: In vitro inhibitory activity against HSV ribonucleotide reductase.
Test [2] has the same target. The test is described as follows: Inhibitory activity against HSV-1 in baby hamster kidney cell.
Test [3] deals with Ribonucleotide reductase large subunit (Herpes simplex virus 2). The test is described as follows: Inhibitory activity against HSV-2 in baby hamster kidney cell.

For the compound `CC(C)C[C@H](NC(=O)[C@H](CC(=O)O)NC(=O)[C@H](CC(N)=O)NC(=O)[C@@H](NC(=O)[C@@H](NC(=O)[C@@H](C)Cc1ccccc1)C(C)C)C(C)C)C(=O)O`, in test [1], half-maximal inhibition (IC50) required 11 µM. Same read-out and setting: to `CCC(CC)C(=O)N[C@H](C(=O)N[C@@H](CC(=O)N1CCCC1)C(=O)N[C@H](C(=O)N[C@@H](CC(C)C)C(=O)O)C1(C(=O)O)CC=CC1)C(C)(C)C` belongs 0.0064 µM; to `CC(C)C[C@H](NC(=O)[C@H](CC(=O)O)NC(=O)[C@H](CC(N)=O)NC(=O)[C@@H](NC(=O)[C@@H](NC(=O)[C@H](C)Cc1ccccc1)C(C)C)C(C)C)C(=O)O`, 0.86 µM; to `CC(C)C[C@H](NC(=O)[C@H](CC(=O)O)NC(=O)[C@H](CC(N)=O)NC(=O)[C@@H](NC(=O)[C@@H](NC(=O)C(Cc1ccccc1)Cc1ccccc1)C(C)C)C(C)C)C(=O)O`, 0.18 µM. On the same count and under the same terms, to `CC(C)C[C@H](NC(=O)[C@H](CC(=O)O)NC(=O)[C@H](CC(N)=O)NC(=O)[C@@H](NC(=O)[C@@H](NC(=O)CCc1ccccc1)C(C)C)C(C)C)C(=O)O` belongs 4 µM.

Consider `CC(C)C[C@H](NC(=O)[C@H](CC(=O)O)NC(=O)[C@H](CC(N)=O)NC(=O)[C@@H](NC(=O)[C@H](C(C)C)N(C)C(=O)C(Cc1ccccc1)Cc1ccccc1)C(C)C)C(=O)O`, for which, in test [1], it took 0.022 µM to reach half-maximal inhibition (IC50).

As for `CC(=O)N[C@H](C(=O)N[C@H](C(=O)N[C@@H](CC(=O)N1CCCC1)C(=O)N[C@@H](CC(=O)O)C(=O)N[C@@H](CC(C)C)C(=O)O)C(C)C)C(C)C` (Ac-VVD(Pyrrolidide)DL-OH), the IC50 in test [1] was 0.88 µM.

With `CC(C)C[C@H](NC(=O)[C@H](CC(=O)O)NC(=O)[C@H](CC(=O)N1CCCC1)NC(=O)[C@@H](NC(=O)[C@@H](NC(=O)C(Cc1ccccc1)Cc1ccccc1)C(C)C)C(C)C)C(=O)O` (Dibenzylacetyl-VVD(Pyrrolidide)DL-OH), in test [1], inhibition was half-maximal at 0.0007 µM (IC50). Take `CC(C)[C@H](NC(=O)C(Cc1ccccc1)Cc1ccccc1)C(=O)N[C@H](C(=O)N[C@@H](CC(=O)N1CCCC1)C(=O)N[C@H](C(=O)N[C@H](CO)CC(C)(C)C)C1(C(=O)O)CCCC1)C(C)(C)C` (Dibenzylacetyl-V[Tle]D(Pyrrolidide)[Asp(3,3-(CH2)4)]-{Leu(γ-Me)ol}): the EC50 in test [2] was 12 µM; in test [3], 14 µM. Taken in the same sequence, the figures for `CC(C)[C@H](NC(=O)[C@H](C(C)C)N(C)C(=O)C(Cc1ccccc1)Cc1ccccc1)C(=O)N[C@@H](CC(=O)N1CCCC1)C(=O)N[C@H](C(=O)N[C@H](CO)CC(C)(C)C)C1(C(=O)O)CCCC1` (Dibenzylacetyl-[NMeV]VD(Pyrrolidide)[Asp(3,3-(CH2)4)]-{Leu(γ-Me)ol}) were 7 µM and 6.5 µM.

In the case of `CC(C)[C@@H](C(=O)N[C@H](C(=O)N[C@@H](CC(=O)N1CCCC1)C(=O)N[C@@H](CC(=O)O)C(=O)N[C@H](CO)CC(C)(C)C)C(C)(C)C)N(C)C(=O)C(Cc1ccccc1)Cc1ccccc1` (Dibenzylacetyl-[NMeV][Tle]D(Pyrrolidide)D-{Leu(γ-Me)ol}), the EC50 in test [2] is 30 µM; in test [3] it was 39 µM. For `CC(C)[C@@H](C(=O)N[C@H](C(=O)N[C@@H](CC(=O)N1CCCC1)C(=O)N[C@H](C(=O)N[C@H](CO)CC(C)(C)C)C1(C(=O)O)CCCC1)C(C)(C)C)N(C)C(=O)C(Cc1ccccc1)Cc1ccccc1` (Dibenzylacetyl-[NMeV][Tle]D(Pyrrolidide)[Asp(3,3-(CH2)4)]-{Leu(γ-Me)ol}) the same measures were 3.1 µM and 4.2 µM. For `CC(C)C[C@@H](CO)NC(=O)[C@@H](NC(=O)[C@H](CC(=O)N1CCCC1)NC(=O)[C@@H](NC(=O)[C@H](C(C)C)N(C)C(=O)C(Cc1ccccc1)Cc1ccccc1)C(C)(C)C)C1(C(=O)O)CCCC1` (Dibenzylacetyl-[NMeV][Tle]D(Pyrrolidide)[Asp(3,3-(CH2)4)][Leu(ol)]) the same measures were 7.3 µM and 7.3 µM. Taken in the same sequence, the figures for `CC(C)[C@@H](C(=O)N[C@H](C(=O)N[C@@H](CC(=O)N1CCCC1)C(=O)N[C@H](C(=O)N[C@@H](CC(C)(C)C)C(=O)O)C1(C(=O)O)CCCC1)C(C)(C)C)N(C)C(=O)C(Cc1ccccc1)Cc1ccccc1` (Dibenzylacetyl-[NMeV][Tle]D(Pyrrolidide)[Asp(3,3-(CH2)4)][tBuAla]-OH) were 35 µM and 30 µM. For the compound `CC(C)[C@@H](C(=O)N[C@H](C(=O)N[C@@H](CC(N)=O)C(=O)N[C@H](C(=O)N[C@H](CO)CC(C)(C)C)C1(C(=O)O)CCCC1)C(C)(C)C)N(C)C(=O)C(Cc1ccccc1)Cc1ccccc1` (Dibenzylacetyl-[NMeV][Tle]N[Asp(3,3-(CH2)4)]-{Leu(γ-Me)ol}), the EC50 in test [2] and in test [3] was 150 µM throughout. With `CC(C)C[C@H](NC(=O)[C@H](CC(=O)O)NC(=O)[C@H](CC(=O)N1CCCC1)NC(=O)[C@@H](NC(=O)[C@H](C)NC(=O)CCc1ccccc1)C(C)C)C(=O)O` (Hydrocinnamoyl-AVD(Pyrrolidide)DL-OH), in test [1], the IC50 came to 8.8 µM. This counts as single-digit micromolar. The same measure, in the same setting: the value for `CC(C)C[C@H](NC(=O)[C@H](CC(=O)O)NC(=O)[C@H](CC(=O)N1CCCC1)NC(=O)[C@@H](NC(=O)CNC(=O)CCc1ccccc1)C(C)C)C(=O)O` (Hydrocinnamoyl-GVD(Pyrrolidide)DL-OH) was 115 µM. On the same count and under the same terms, to `CC[C@H](C)[C@H](NC(=O)CCc1ccccc1)C(=O)N[C@H](C(=O)N[C@@H](CC(=O)N1CCCC1)C(=O)N[C@@H](CC(=O)O)C(=O)N[C@@H](CC(C)C)C(=O)O)C(C)C` (Hydrocinnamoyl-IVD(Pyrrolidide)DL-OH) belongs 0.061 µM; to `CC(C)[C@H](NC(=O)CCc1ccccc1)C(=O)N[C@H](C(=O)N[C@@H](CC(=O)N1CCCC1)C(=O)N[C@@H](CC(=O)O)C(=O)N[C@H](CO)CC(C)(C)C)C(C)C` (Hydrocinnamoyl-VVD(Pyrrolidide)D-{Leu(γ-Me)ol}), 0.034 µM. Still for that read-out and setting: to `CC(C)C[C@H](NC(=O)[C@H](CC(=O)O)NC(=O)[C@H](CC(=O)N1CCCC1)NC(=O)[C@@H](NC(=O)[C@@H](NC(=O)CCc1ccccc1)C(C)C)C(C)C)C(=O)O` (Hydrocinnamoyl-VVD(Pyrrolidide)DL-OH) belongs 0.024 µM; to `CC(C)[C@H](NC(=O)CCc1ccccc1)C(=O)N[C@H](C(=O)N[C@@H](CC(=O)N1CCCC1)C(=O)N[C@@H](CC(=O)O)C(=O)N[C@@H](CC(C)(C)C)C(=O)O)C(C)C` (Hydrocinnamoyl-VVD(Pyrrolidide)D[tBuAla]-OH), 0.005 µM; to `CC(C)C[C@H](NC(=O)[C@@H](NC(=O)[C@H](CC(=O)N1CCCC1)NC(=O)[C@@H](NC(=O)[C@@H](NC(=O)CCc1ccccc1)C(C)C)C(C)C)C1(C(=O)O)CCCC1)C(=O)O` (Hydrocinnamoyl-VVD(Pyrrolidide)[Asp(3,3-(CH2)4)]L-OH), 0.001 µM. In test [1], `CC(C)C[C@H](NC(=O)[C@H](CC(=O)O)NC(=O)[C@H](CC(=O)N1CCCC1)NC(=O)[C@@H](NC(=O)[C@@H](NC(=O)CCc1ccccc1)C(C)C)C(C)(C)C)C(=O)O` (Hydrocinnamoyl-V[Tle]D(Pyrrolidide)DL-OH) returned an IC50 of 0.004 µM. `CC[C@H](NC(=O)CCc1ccccc1)C(=O)N[C@H](C(=O)N[C@@H](CC(=O)N1CCCC1)C(=O)N[C@@H](CC(=O)O)C(=O)N[C@@H](CC(C)C)C(=O)O)C(C)C` (Hydrocinnamoyl-[Abu]VD(Pyrrolidide)DL-OH): the midpoint of inhibition in test [1], the IC50, lay at 0.34 µM. On the same count and under the same terms, the value for `CC(C)C[C@H](NC(=O)[C@H](CC(=O)O)NC(=O)[C@H](CC(=O)N1CCCC1)NC(=O)[C@@H](NC(=O)[C@@H](NC(=O)CCc1ccccc1)C1CCCCC1)C(C)C)C(=O)O` (Hydrocinnamoyl-[Chg]VD(Pyrrolidide)DL-OH) was 0.022 µM. In test [1], `CC(C)C[C@H](NC(=O)[C@H](CC(=O)O)NC(=O)[C@H](CC(=O)N1CCCC1)NC(=O)[C@@H](NC(=O)[C@H](C(C)C)N(C)C(=O)CCc1ccccc1)C(C)C)C(=O)O` (Hydrocinnamoyl-[NMeV]VD(Pyrrolidide)DL-OH) returned a half-maximal inhibitory concentration (IC50) of 0.0075 µM. As to `CC(C)[C@@H](C(=O)N[C@H](C(=O)N[C@@H](CC(=O)N1CCCC1)C(=O)N[C@H](C(=O)N[C@H](CO)CC(C)(C)C)C1(C(=O)O)CCCC1)C(C)(C)C)N(C)C(=O)CCc1ccccc1` (Hydrocinnamoyl-[NMeV][Tle]D(Pyrrolidide)[Asp(3,3-(CH2)4)]-{Leu(γ-Me)ol}), the concentration for a half-maximal effect (EC50) came out at 52 µM in test [2] and 35 µM in test [3]. As to `CC(C)C[C@H](NC(=O)[C@H](CC(=O)O)NC(=O)[C@H](CC(=O)N1CCCC1)NC(=O)[C@@H](NC(=O)[C@@H](NC(=O)CCc1ccccc1)C(C)(C)C)C(C)C)C(=O)O` (Hydrocinnamoyl-[Tle]VD(Pyrrolidide)DL-OH), inhibition in test [1] was half-maximal at 0.036 µM (IC50). Still for that read-out and setting: to `CCC(CC)C(=O)N[C@H](C(=O)N[C@@H](CC(=O)N1CCCC1)C(=O)N[C@@H](CC(=O)O)C(=O)N[C@@H](CC(C)C)C(=O)O)C(C)C` ({Butanoyl(2-Et)}-VD(Pyrrolidide)DL-OH) belongs 0.86 µM.
